Like-named read-outs stand apart in the source and are kept apart here.
Assays:
SARS-CoV-2-NLuc = test: microbe, parasite or virus in culture; assay type: cell-based, SARS Coronavirus 2
[1] = target: recombinant SARS-CoV-2 Main protease (Mpro) (Severe acute respiratory syndrome coronavirus 2 (2019-nCoV) (SARS-CoV-2), UniProt P0DTD1); test: Cov Mpro Biochemical IC50 Assay
[2] = Severe acute respiratory syndrome coronavirus, 48 h, read-out: MPro EC50
[3] = recombinant SARS-CoV-2 Mpro, fluorogenic peptide substrate, read-out: MPro IC50
[4] = recombinant SARS-CoV-2 Mpro 7.5 nM, fluorogenic peptide substrate 40 μM, read-out: MPro IC50
[5] = Severe acute respiratory syndrome coronavirus, 48 h; read-out: MPro EC50

| Compound | EC50 (SARS-CoV-2-NLuc; [2]) [nM] | IC50 [1, 3] [nM] | IC50 [1, 4] [nM] | other results |
| --- | --- | --- | --- | --- |
| O=C1NCCc2c1cccc2-c1cccc(Cl)c1-c1ccc2c(=O)n(-c3cncc4ccccc34)c(=O)[nH]c2c1 [Example 194] | 20.6 | < 2.54 |  |  |
| COc1cc(-c2cc3[nH]c(=O)n(-c4cncc5cc(C(=O)N(C)C)sc45)c(=O)c3s2)c(Cl)cc1F [Example 1010, 7-[6-(2-chloro-4-fluoro-5-methoxy-phenyl)-2,4-dioxo-1H-thieno[3,2-d]pyrimidin-3-yl]-N,N-dimethyl-thieno[3,2-c]pyridine-2-carboxamide] | 69.2 |  | 3.29 |  |
| COc1ccc(Cl)c(-c2cc3[nH]c(=O)n(-c4cncc5ccc(N6CCOCC6=O)cc45)c(=O)c3s2)c1 [Example 573, 6-(2-chloro-5-methoxyphenyl)-3-(6-(3-oxomorpholino)isoquinolin-4-yl)thieno[3,2-d]pyrimidine-2,4(1H,3H)-dione] |  |  | 3.26 | EC50 (SARS-CoV-2-NLuc; [5]): 20.1 nM |
| COc1cc(-c2cc3c(s2)c(=O)n(-c2cncc4ncccc24)c(=O)n3CCC#N)c(Cl)cc1F [Example 915] | 19.4 |  | 8.9 |  |
| COc1cc(-c2cc3c(s2)c(=O)n(-c2cc(C)cnn2)c(=O)n3CCC#N)c(C#N)cc1F [Example 812] |  |  | 8.87 | EC50 (SARS-CoV-2-NLuc; [5]): 89 nM |
| COc1cccc(Cl)c1-c1cc2[nH]c(=O)n(-c3cncc4ccccc34)c(=O)c2s1 [Example 19] | 59.6 | 29.5 |  |  |
| COc1cc(-c2cc3c(s2)c(=O)n(-c2cncc4ccccc24)c(=O)n3CC2(C#N)CC2)c(Cl)cc1F (single isomer, unassigned) [Example 635, 1-[[6-(2-chloro-4-fluoro-5-methoxy-phenyl)-3-(4-isoquinolyl)-2,4-dioxo-thieno[3,2-d]pyrimidin-1-yl]methyl]cyclopropanecarbonitrile] |  |  | 3.26 | EC50 (SARS-CoV-2-NLuc; read-out: MPro EC50): 1.78 nM |
| COc1ccc(Cl)c(-c2cc3[nH]c(=O)n(-c4cncc(CC(=O)N5CCOCC5)c4)c(=O)c3s2)c1 [Example 612] | > 1000 |  | 12.2 |  |
| COc1ccc(Cl)c(-c2cc3[nH]c(=O)n(-c4cncc5cccc(F)c45)c(=O)c3s2)c1 [Example 445] | 22 |  | 5.71 |  |
| COc1cc(-c2cc3c(s2)c(=O)n(-c2cncc4c2c(C(F)(F)F)nn4COCC[Si](C)(C)C)c(=O)n3CCC#N)c(Cl)cc1F [Example 1046, 3-(6-(2-chloro-4-fluoro-5-methoxyphenyl)-2,4-dioxo-3-(3-(trifluoromethyl)-1-((2-(trimethylsilyl)ethoxy)methyl)-1H-pyrazolo[3,4-c]pyridin-4-yl)-3,4-dihydrothieno[3,2-d]pyrimidin-1(2H)-yl)propanenitrile] |  |  |  | EC50 (SARS-CoV-2-NLuc; [5]): 129 nM; IC50 ([1]; MPro IC50, recombinant SARS-CoV-2 Mpro 7.5 nM, fluorogenic peptide substrate 40 μM): 35.8 nM |
| COc1cc(-c2cc3[nH]c(=O)n(-c4cncc5nc(C)n(C)c45)c(=O)c3s2)c(Cl)cc1F [Example 764] | 257 |  | 18.1 |  |
| N#CCCn1c(=O)n(-c2cncc(Cl)c2)c(=O)c2sc(-c3ccccc3C#N)cc21 [Example 863] |  |  | 13.3 | EC50 (SARS-CoV-2-NLuc; [5]): 37.6 nM |
| Cn1ncc2cncc(-n3c(=O)c4sc(-c5ccc(F)cc5Cl)cc4n(CCC#N)c3=O)c21 [Example 769, 3-(6-(2-chloro-4-fluorophenyl)-3-(1-methyl-1H-pyrazolo[4,3-c]pyridin-7-yl)-2,4-dioxo-3,4-dihydrothieno[3,2-d]pyrimidin-1(2H)-yl)propanenitrile] |  |  | 8.55 | EC50 (SARS-CoV-2-NLuc; [5]): 15.6 nM |
| COc1cnc(Cl)c(-c2cc3[nH]c(=O)n(-c4cncc5ccccc45)c(=O)c3s2)c1 (single isomer, unassigned) [Example 628, 6-(2-chloro-5-methoxypyridin-3-yl)-3-(isoquinolin-4-yl)thieno[3,2-d]pyrimidine-2,4(1H,3H)-dione] |  |  | 3.26 | EC50 (SARS-CoV-2-NLuc; read-out: MPro EC50): 15.9 nM |
| COc1ccc(Cl)c(-c2ccc3c(=O)n(-c4cncc5ccc(N6CC7(COCCO7)C6)cc45)c(=O)[nH]c3c2)c1 [Example 412] |  |  | 10.8 | EC50 (SARS-CoV-2-NLuc; [5]): 38.3 nM |
| Cn1ncc2cncc(-n3c(=O)c4sc(-c5cc(Cl)ccc5Cl)cc4n(CCC#N)c3=O)c21 [Example 793] | 5.02 |  | 6.63 |  |
| O=c1c2sc(-c3ccccc3Cl)cc2n(CC2CCOCC2)c(=O)n1-c1cncc2ccccc12 [Example 120, 6-(2-chlorophenyl)-3-(isoquinolin-4-yl)-1-((tetrahydro-2H-pyran-4-yl)methyl)thieno[3,2-d]pyrimidine-2,4(1H,3H)-dione] | 275 | 96.8 |  |  |
| COc1cnc(Cl)c(-c2cc3c(s2)c(=O)n(-c2cncc4ccccc24)c(=O)n3CCC#N)c1 (single isomer, unassigned) [Example 1088, 3-(6-(2-chloro-5-methoxypyridin-3-yl)-3-(isoquinolin-4-yl)-2,4-dioxo-3,4-dihydrothieno[3,2-d]pyrimidin-1(2H)-yl)propanenitrile] |  |  | 1.65 | EC50 (SARS-CoV-2-NLuc; read-out: MPro EC50): 3.27 nM |
| COc1cc(-c2cc3c(s2)c(=O)n(-c2cncc4ccn(C)c(=O)c24)c(=O)n3CC#N)c(Cl)cc1F [Example 696] | 29.2 |  | 3.15 |  |
| Cc1noc(C)c1-c1cccc(Cl)c1-c1cc2[nH]c(=O)n(-c3cncc4ccccc34)c(=O)c2s1 [Example 355] | 22.9 | 9.64 |  |  |
| O=c1[nH]c2cc(-c3ccsc3Cl)ccc2c(=O)n1-c1cncc2ccccc12 [Example 84] | 1030 | 604 |  |  |
| COc1ccc(C#N)c(-c2cc3[nH]c(=O)n(-c4cncc5ccsc45)c(=O)c3s2)c1 [Example 483] | 18.1 |  | < 2.54 |  |

| Compound | EC50 (SARS-CoV-2-NLuc; [2]) [nM] | IC50 [1, 3] [nM] | IC50 [1, 4] [nM] | other results |
| --- | --- | --- | --- | --- |
| COc1cnc(Cl)c(-c2cc3c(s2)c(=O)n(-c2cncc4nn(C)c(C)c24)c(=O)n3CCC#N)c1 [Example 1086] | 413 |  | 24.6 |  |
| CN1C(=O)CCc2cc(-c3cccc(Cl)c3-c3ccc4c(=O)n(-c5cncc6ccccc56)c(=O)[nH]c4c3)ccc21 [Example 307] | 10.4 | 16.9 |  |  |
| N#Cc1cc(-c2cccc(Cl)c2-c2ccc3c(=O)n(-c4cncc5ccccc45)c(=O)[nH]c3c2)ccn1 [Example 328] | 45.9 | 15.4 |  |  |
| COc1ccc2cncc(-n3c(=O)[nH]c4cc(-c5c(Cl)cccc5C5=CCOCC5)sc4c3=O)c2c1 [Example 563] | 10 |  | 6.96 |  |
| O=c1[nH]c2cc(-c3c(Cl)cccc3-c3cnn4c3OCCC4)sc2c(=O)n1-c1cncc2ccccc12 [Example 528] | 7.22 |  | 7.09 |  |
| NC(=O)c1cncc(-c2cccc(Cl)c2-c2ccc3c(=O)n(-c4cncc5ccccc45)c(=O)[nH]c3c2)c1 [Example 185] | 489 | < 3.01 |  |  |
| Cc1cnc(Cl)c(-c2cc3c(s2)c(=O)n(-c2cncc4cnn(C)c24)c(=O)n3CCC#N)c1 [Example 1020] | 398 |  | 107 |  |
| Cc1c(Cl)cncc1-n1c(=O)[nH]c2cc(-c3ccccc3Cl)ccc2c1=O [Example 140, 3-(5-chloro-4-methylpyridin-3-yl)-7-(2-chlorophenyl)quinazoline-2,4(1H,3H)-dione] | 429 | > 100000 |  |  |
| COc1cc(-c2ccc3c(=O)n(-c4cncc5ccccc45)c(=O)n(CC#N)c3c2)c(Cl)cc1F [Example 897] | 85.4 |  | 11.2 |  |
| Cn1ncc2cncc(-n3c(=O)c4sc(C5C(Cl)=CC(Cl)=C6OCCC65)cc4n(CCC#N)c3=O)c21 (stereo not shown) [Example 1021] | 37.2 |  | 15.5 |  |
| O=c1[nH]c2cc(-c3ccccc3Cl)sc2c(=O)n1-c1cncc2ccc(N3CC4C(C3)C4(F)F)cc12 (stereo not shown) [Example 231] | 37.4 | 22.1 |  |  |
| N#CCCn1c(=O)n(-c2cncc3cccc(F)c23)c(=O)c2sc(-c3ccccc3C#N)cc21 [Example 1085] | 41.6 |  | 23.1 |  |
| COc1cc(-c2cc3c(s2)c(=O)n(-c2cncc4cnn(C)c24)c(=O)n3CCO)c(Cl)cc1F [Example 1070] | 30.8 |  | 19.8 |  |
| COc1ccc(Cl)c(-c2cc3[nH]c(=O)n(-c4cncc5ccccc45)c(=O)c3cc2OC)c1 [Example 309] | 26.7 | 56.9 |  |  |
| COc1cc(-c2cc3[nH]c(=O)n(-c4cncc5cccc(F)c45)c(=O)c3s2)c(Cl)cc1F (single isomer, unassigned) [Example 900, 6-(2-chloro-4-fluoro-5-methoxyphenyl)-3-(5-fluoroisoquinolin-4-yl)thieno[3,2-d]pyrimidine-2,4(1H,3H)-dione] |  |  | 334 | EC50 (SARS-CoV-2-NLuc; read-out: MPro EC50): 172 nM |
| COc1cc(-c2cc3c(s2)c(=O)n(-c2cncc4nc(C)n(C)c24)c(=O)n3CCC#N)c(Cl)cc1F (single isomer, unassigned) [Example 969, 3-(6-(2-chloro-4-fluoro-5-methoxyphenyl)-3-(1,2-dimethyl-1H-imidazo[4,5-c]pyridin-7-yl)-2,4-dioxo-3,4-dihydrothieno[3,2-d]pyrimidin-1(2H)-yl)propanenitrile] |  |  | > 1000 | EC50 (SARS-CoV-2-NLuc; read-out: MPro EC50): > 1000 nM |
| CN1CCOc2cc(-c3cccc(Cl)c3-c3ccc4c(=O)n(-c5cncc6ccccc56)c(=O)[nH]c4c3)ccc21 [Example 314] | 72.9 | 456 |  |  |
| N#Cc1ccc(OC(F)F)cc1-c1ccc2c(=O)n(-c3cncc4ccccc34)c(=O)[nH]c2c1 [Example 326] | 106 | 42.5 |  |  |
| Cc1nc(COc2cccc(Cl)c2-c2ccc3c(=O)n(-c4cncc5ccccc45)c(=O)[nH]c3c2)co1 [Example 87] | 203 | 172 |  |  |
| COc1cc(-c2cc3c(s2)c(=O)n(-c2cncc4ccccc24)c(=O)n3CC2(CC#N)CC2)c(Cl)cc1F [Example 661] | 37 |  | 29.5 |  |
| COCCn1ncc2cncc(-n3c(=O)c4sc(-c5cc(OC)c(F)cc5Cl)cc4n(CCC#N)c3=O)c21 [Example 912] | 4.36 |  | 4.9 |  |
| Cc1noc(C)c1-c1ccc2c(=O)n(-c3cncc4ccccc34)c(=O)[nH]c2c1 [Example 44] |  |  |  | EC50 (SARS-CoV-2-NLuc; [5]): 3000 nM; IC50 ([1]; MPro IC50, recombinant SARS-CoV-2 Mpro, fluorogenic peptide substrate): 1370 nM |

— patent US20240116946A1 (Gilead Sciences, Inc., priority 2022, published 2024)
